Converted amounts (≈) assume the structure as drawn. Where two headings read alike, the source gives them in different places.
What was measured:
[1] = 10 mg/kg encequidar, oral; ref Smolinski et al., 2021; cited from earlier work
[2] = ref Al-Ali et al., cited from earlier work; for oral bioavailability of etoposide: 2020
[3] = mdr1a(−/−) (P-gp) knockout rats; ref Al-Ali et al., 2018a; cited from earlier work
[4] = Pharmacokinetic dose escalation study in rats; type: in vivo, Sprague Dawley rats; settings: for bioavailability: Etoposide Bioavailability; for Zosuquidar tmax: median [Q1;Q3]
[5] = for precipitation upon dilution in rSIF (visual): 1:1 in rSIF; for initial zosuquidar solubility: supernatant, 37 °C
[6] = Etoposide solubility in ethanol-water mixtures; type: physicochemical; settings: 22 °C, thermodynamic from solid
Caco-2 cell monolayers [7] = assay: Bidirectional etoposide permeability across Caco-2 cell monolayers; type: in vitro ADME; settings: in the presence of more than 79 nM zosuquidar; Caco-2
[8] = as above; type: in vitro ADME; settings: human, Caco-2, pH 7.4
[9] = Zosuquidar recovery in the compartments of the Caco-2 Transwell system; type: in vitro ADME; settings: for zosuquidar left in solution / zosuquidar recovery: 120 min, mean ± SEM, n = 24; for zosuquidar left in solution: % of added
P-gp = assay: In vitro-in vivo correlation of P-gp inhibition; settings: 180 μM intestinal concentration in vivo vs. 5–10 nM in Caco-2
[10] = weak base; ref Drugbank, 2021; cited from earlier work
[11] = 20 mg/kg zosuquidar IV; ref Anderson et al., 2006; cited from earlier work
Caco-2 cell monolayers [12] = assay: Lucifer yellow permeability; type: in vitro ADME
[13] = etoposide 5 mg/kg IV, by an oral dose of 20 mg/kg zosuquidar (group B vs A)
[14] = group B: zosuquidar 20 mg/kg oral + etoposide 5 mg/kg IV, mean ± SEM, n = 6
[15] = group F: zosuquidar 0.63 mg/kg oral + etoposide 20 mg/kg oral, mean ± SEM, n = 6
[16] = group G: zosuquidar 2.0 mg/kg oral + etoposide 20 mg/kg oral, mean ± SEM, n = 6
[17] = group H: zosuquidar 6.3 mg/kg oral + etoposide 20 mg/kg oral, mean ± SEM, n = 6
[18] = group I: zosuquidar 20 mg/kg oral + etoposide 20 mg/kg oral, mean ± SEM, n = 6
[19] = group J: zosuquidar 63 mg/kg oral + etoposide 20 mg/kg oral, mean ± SEM, n = 6

COc1cc2c(cc1OC)CN(CCc1ccc(-n3nnc(-c4cc(OC)c(OC)cc4NC(=O)c4cc(=O)c5ccccc5o4)n3)cc1)CC2 [encequidar]
encequidar Cmax [1]: 7.1 ng/mL | encequidar bioavailability [1]: 6.25%

COc1cc([C@@H]2c3cc4c(cc3[C@@H](O[C@@H]3O[C@@H]5CO[C@@H](C)O[C@H]5[C@H](O)[C@H]3O)[C@H]3COC(=O)[C@H]23)OCO4)cc(OC)c1O [etoposide]
oral bioavailability of etoposide ([2]; 20 mg/kg etoposide oral + 20 mg/kg oral zosuquidar): 34.5% | absolute etoposide bioavailability ([2]; wild-type rats, 2018a): 27 ± 5% | oral bioavailability of etoposide ([2]; without zosuquidar): 4.0% | oral etoposide bioavailability [3]: 92% | increase of etoposide AUC0-6h [4, 13]: 34% | increase of etoposide t½ [4, 13]: 37% | Etoposide Bioavailability ([4]; group D: etoposide 20 mg/kg oral, no zosuquidar, mean ± SEM, n = 6): 5% | AUC(0-t) ([4]; male, Sprague Dawley, rat, plasma, po, 20 mg/kg, Etoposide AUC0-6h, group I: etoposide 20 mg/kg oral + zosuquidar 20 mg/kg oral, mean ± SEM, n = 6): 3530 ± 460 ng·h/mL | bioavailability ([4]; male, Sprague Dawley, rat, plasma, po, 20 mg/kg, group D: etoposide 20 mg/kg oral, no zosuquidar, mean ± SEM, n = 6): 5.5 ± 0.9% | bioavailability ([4]; male, Sprague Dawley, rat, plasma, po, 20 mg/kg, group I: etoposide 20 mg/kg oral + zosuquidar 20 mg/kg oral, mean ± SEM, n = 6): 20.5 ± 2.7% | precipitation upon dilution in rSIF (visual) ([5]; etoposide, any formulation): did not precipitate | solubility at 24 h ([6]; absolute ethanol, organic solvent or mixture): 891 ± 8 µg/mL (≈ 1510 µM) | solubility at 24 h ([6]; ethanol-water mixture): 9230 ± 420 µg/mL (≈ 15700 µM) | solubility at 24 h ([6]; water): 92.4 ± 3.4 µg/mL (≈ 157 µM) | decrease of etoposide B-A permeability (Caco-2 cell monolayers [7]): 5 fold | increase of etoposide A-B permeability (Caco-2 cell monolayers [7]): 4 fold | recovery at 120 min, 50 µM [8]: 95 to 117%

O[C@@H](COc1cccc2ncccc12)CN1CCN([C@@H]2c3ccccc3[C@@H]3[C@H](c4ccccc42)C3(F)F)CC1 [zosuquidar]
reduction of free zosuquidar concentration in the receiver compartments ([9]; apical and basolateral, after 30 min, data not shown): 60–72% | zosuquidar left in solution ([9]; apical compartment): 1.55 ± 0.06% | zosuquidar left in solution ([9]; basolateral compartment): 7.01 ± 0.37% | zosuquidar recovery ([9]; in the Caco-2 monolayer): 58.7 ± 5.0% | zosuquidar recovery ([9]; in the cell culture plate): 31.8 ± 11.3% | in vitro-in vivo discrepancy of zosuquidar P-gp inhibition (P-gp): at least four orders of magnitude | predicted pKa [10]: 7.6 | tolerability of IV zosuquidar [11]: no reported issues | zosuquidar plasma concentration ([4]; 2 h after a 5 mg/kg IV bolus): 0.13 µg/mL | Zosuquidar AUC0-6h [4, 14]: 94.2 ± 12.4 ng·h/mL | Zosuquidar Bioavailability [4, 14]: 2.81±0.37% | Zosuquidar Cmax [4, 14]: 23.7 ± 3.6 ng/mL | Zosuquidar t½ terminal [4, 14]: 2.88 ± 0.167 h | Zosuquidar tmax ([4]; group B: zosuquidar 20 mg/kg oral + etoposide 5 mg/kg IV, n = 6): 120[60;135] min | Zosuquidar AUC0-6h ([4]; group C: zosuquidar 5.0 mg/kg IV, mean ± SEM, n = 3): 830 ± 87 ng·h/mL | Zosuquidar CL ([4]; group C: zosuquidar 5.0 mg/kg IV, n = 3): 102 ± 12 mL/min/kg | Zosuquidar t½ terminal ([4]; group C: zosuquidar 5.0 mg/kg IV, two-compartment model, mean ± SEM, n = 3): 2.33 ± 0.4 h | Zosuquidar AUC0-6h [4, 15]: 4.45 ± 0.86 ng·h/mL | Zosuquidar Bioavailability [4, 15]: 4.21±0.81% | Zosuquidar Cmax [4, 15]: 1.34 ± 0.28 ng/mL | Zosuquidar t½ terminal [4, 15]: 1.37 ± 0.0917 h | Zosuquidar tmax ([4]; group F: zosuquidar 0.63 mg/kg oral + etoposide 20 mg/kg oral, n = 6): 120[101;120] min | Zosuquidar AUC0-6h [4, 16]: 8.67 ± 0.77 ng·h/mL | Zosuquidar Bioavailability [4, 16]: 2.58±0.23% | Zosuquidar Cmax [4, 16]: 2.10 ± 0.27 ng/mL | Zosuquidar t½ terminal [4, 16]: 3.62 ± 0.45 h | Zosuquidar tmax ([4]; group G: zosuquidar 2.0 mg/kg oral + etoposide 20 mg/kg oral, n = 6): 120[45;135] min | Zosuquidar AUC0-6h [4, 17]: 43.6 ± 5.4 ng·h/mL | Zosuquidar Bioavailability [4, 17]: 4.12±0.51% | Zosuquidar Cmax [4, 17]: 10.9 ± 1.2 ng/mL | Zosuquidar t½ terminal [4, 17]: 2.68 ± 0.217 h | Zosuquidar tmax ([4]; group H: zosuquidar 6.3 mg/kg oral + etoposide 20 mg/kg oral, n = 6): 90[45;120] min | Zosuquidar AUC0-6h [4, 18]: 118 ± 21 ng·h/mL | Zosuquidar Bioavailability [4, 18]: 3.52±0.62% | Zosuquidar Cmax [4, 18]: 31.3 ± 3.2 ng/mL | Zosuquidar t½ terminal [4, 18]: 3.23 ± 0.383 h | Zosuquidar AUC0-6h [4, 19]: 436 ± 91 ng·h/mL | Zosuquidar Bioavailability [4, 19]: 4.12±0.86% | Zosuquidar Cmax [4, 19]: 105 ± 21 ng/mL | Zosuquidar t½ terminal [4, 19]: 3.97 ± 0.233 h | Oral zosuquidar bioavailability ([4]; range over the oral zosuquidar doses, Sprague Dawley rats): 2.6–4.2% | precipitation upon dilution in rSIF (visual) ([5]; 2.0 and 6.3 mg/mL zosuquidar (groups B, I, J)): precipitation was observed | initial zosuquidar solubility ([5]; formulation B (2.0 mg/mL zosuquidar) diluted 1:1 in rSIF): 450 µg/mL | dose strength being in solution ([5]; formulation B diluted 1:1 in rSIF): 44% | initial zosuquidar solubility ([5]; formulation I (2.0 mg/mL zosuquidar) diluted 1:1 in rSIF): 520 µg/mL | dose strength being in solution ([5]; formulation I diluted 1:1 in rSIF): 52% | initial zosuquidar solubility ([5]; formulation J (6.3 mg/mL zosuquidar) diluted 1:1 in rSIF): 470 µg/mL | dose strength being in solution ([5]; formulation J diluted 1:1 in rSIF): 15% | precipitation upon dilution in rSIF (visual) ([5]; lower zosuquidar concentrations): remained clear

lucifer yellow
lucifer yellow Papp (Caco-2 cell monolayers [12]; 100 μM lucifer yellow, Caco-2, not affected by zosuquidar): below 1.1 × 10^−6 cm/s | lucifer yellow recovery (Caco-2 cell monolayers [12]; Caco-2 permeability experiments): 82–110%

— article PMC8683663 (International Journal of Pharmaceutics: X, 2021)
